Reference: patent publication US20240384268A1, “Oligonucleotides” (Hudson Institute of Medical Research, priority 2021, published 2024)
In the oligonucleotide strings, read from the 5' end, every base follows the letter of its sugar. An asterisk marks phosphorothioate; unmarked linkages are phosphodiester. Other units and linkages are bracketed, terminal groups are in braces. A string of capitals states the bases alone. m = 2'-O-methyl

Biological target: T1, human TLR9 (Homo sapiens, UniProt Q9NR96)
T1 construct: HA; host or cells: 293XL-hTLR9-HA (HEK293)
T1 sequence (Q9NR96 26-1032): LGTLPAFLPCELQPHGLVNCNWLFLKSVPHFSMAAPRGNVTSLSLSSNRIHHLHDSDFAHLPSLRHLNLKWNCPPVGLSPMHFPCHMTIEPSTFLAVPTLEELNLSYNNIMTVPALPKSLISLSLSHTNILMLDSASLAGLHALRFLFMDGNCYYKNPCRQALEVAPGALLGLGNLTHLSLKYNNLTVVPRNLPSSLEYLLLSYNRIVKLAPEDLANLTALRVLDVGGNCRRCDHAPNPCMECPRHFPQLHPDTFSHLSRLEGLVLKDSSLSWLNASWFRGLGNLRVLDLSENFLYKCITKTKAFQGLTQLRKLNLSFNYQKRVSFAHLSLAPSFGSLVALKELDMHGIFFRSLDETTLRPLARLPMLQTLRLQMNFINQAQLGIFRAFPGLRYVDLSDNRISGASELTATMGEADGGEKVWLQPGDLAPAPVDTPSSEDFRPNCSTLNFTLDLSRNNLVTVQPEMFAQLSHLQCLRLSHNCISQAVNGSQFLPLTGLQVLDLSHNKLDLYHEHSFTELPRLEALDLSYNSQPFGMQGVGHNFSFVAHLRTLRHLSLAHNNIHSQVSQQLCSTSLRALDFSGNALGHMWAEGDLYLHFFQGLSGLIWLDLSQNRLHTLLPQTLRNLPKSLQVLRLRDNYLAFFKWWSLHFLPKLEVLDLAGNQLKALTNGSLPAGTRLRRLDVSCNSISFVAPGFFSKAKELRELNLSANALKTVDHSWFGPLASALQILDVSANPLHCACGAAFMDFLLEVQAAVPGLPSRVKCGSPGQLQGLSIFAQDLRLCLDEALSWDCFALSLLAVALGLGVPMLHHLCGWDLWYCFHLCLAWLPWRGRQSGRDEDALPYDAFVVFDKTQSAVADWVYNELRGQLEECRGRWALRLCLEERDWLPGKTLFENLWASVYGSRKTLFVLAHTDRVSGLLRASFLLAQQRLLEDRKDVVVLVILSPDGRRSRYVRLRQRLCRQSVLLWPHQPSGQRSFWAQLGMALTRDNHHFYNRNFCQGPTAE
Assay: HEK-TLR9 NF-κB-luciferase reporter, ODN2006 stimulation
Assay type: cell-based
Settings: for TLR9 2 uM: 3mer 2'OMe ASO at 2 uM, HEK-TLR9, value relative to Ligand only = 1.000, NT = 0.000; for TLR9 100 nM (averaged NF-κB-Luciferase level relative to ODN2006 condition): ASO 100 nM; for TLR9 100 nM (averaged NF-κB-Luciferase level relative to ODN2006 condition) / TLR9 500 nM (averaged NF-κB-Luciferase level relative to ODN2006 condition): relative to ODN2006 only, given as fraction; for TLR9 500 nM (averaged NF-κB-Luciferase level relative to ODN2006 condition): ASO 500 nM

Row | Sequence | TLR9 2 uM | TLR9 100 nM (averaged NF-κB-Luciferase level relative to ODN2006 condition) | TLR9 500 nM (averaged NF-κB-Luciferase level relative to ODN2006 condition)
1 | AAU (antisense mA*mA*mU) | 0.884 | – | –
2 | ACACTTCGTGGGGTCC (antisense; LNA-modified, pattern not given here) [HPRT LNA-665 V1] | – | 0.241 | 0.001
3 | ACU (antisense mA*mC*mU) | 0.996 | – | –
4 | AGU (antisense mA*mG*mU) | 0.840 | – | –
5 | AUA (antisense mA*mU*mA) | 0.944 | – | –
6 | AUG (mA*mU*mG) | 0.878 | – | –
7 | AUU (mA*mU*mU) | 0.864 | – | –
8 | CAACACTTCGTGGGGT (antisense; LNA-modified, pattern not given here) [HPRT LNA-667 V1] | – | 0.733 | 0.395
9 | CAU (mC*mA*mU) | 0.921 | – | –
10 | CCAAGATCAGCAGTCT (antisense; LNA-modified, pattern not given here) [CTNN2B-2341 LNA KL] | – | 1.424 | 0.669
11 | CCATCCATGAGGTCCT (antisense; LNA-modified, pattern not given here) [CTNN2B-2545 LNA V1] | – | 1.383 | 0.476
12 | CCU (mC*mC*mU) | 1.180 | – | –
13 | CGU (mC*mG*mU) | 1.237 | – | –
14 | CUA (mC*mU*mA) | 1.182 | – | –
15 | CUC (mC*mU*mC) | 0.966 | – | –
16 | CUG (mC*mU*mG) | 0.948 | – | –
17 | GATAGCACCTTCAGCA (antisense; LNA-modified, pattern not given here) [CTNN2B-1294 LNA KL] | – | 0.804 | 0.560
18 | GCAGGCTCAGTGATGT (antisense; LNA-modified, pattern not given here) [CTNN2B-1642 LNA V1] | – | 1.036 | 0.228
19 | GCATCCACCACGTCGT (antisense; LNA-modified, pattern not given here) [EGFR-3267 LNA V1] | – | 0.556 | 0.375
20 | GCCATCCACTTGATAG (antisense; LNA-modified, pattern not given here) [EGFR-2874 LNA V1] | – | 0.772 | 0.589
21 | GCCATGCTGGCTCGGA (antisense; LNA-modified, pattern not given here) [CAMSAP1-2584 LNA V1] | – | 0.879 | 0.147
22 | GCCATGTTTCTTCTTG (antisense; LNA-modified, pattern not given here) [MB21D1-1248 LNA KL] | – | 0.163 | 0.070
23 | GCU (mG*mC*mU) | 1.429 | – | –
24 | GGCTGGAATCCGAGTT (antisense; LNA-modified, pattern not given here) [EGFR-4705 LNA KL] | – | 1.051 | 0.492
25 | GGTTACGGCTCAGTAT (antisense; LNA-modified, pattern not given here) [CAMSAP1-4295 LNA KL] | – | 0.943 | 0.400

Row | Sequence | TLR9 2 uM | TLR9 100 nM (averaged NF-κB-Luciferase level relative to ODN2006 condition) | TLR9 500 nM (averaged NF-κB-Luciferase level relative to ODN2006 condition)
26 | GGU (mG*mG*mU) | 1.177 | – | –
27 | GTATCGAAAGAGTCTG (antisense; LNA-modified, pattern not given here) [EGFR-3908 LNA KL] | – | 1.429 | 0.647
28 | GTCCCCTGTTGACTGG (antisense; LNA-modified, pattern not given here) [HPRT LNA-489 KL] | – | 0.387 | 0.326
29 | GTCTTGGCTTCGTGGA (antisense; LNA-modified, pattern not given here) [MB21D1-522 LNA V1] | – | 0.745 | 0.392
30 | GTGTCTGGAAGCTTCC (antisense; LNA-modified, pattern not given here) [CTNN2B-809 LNA V1] | – | 0.493 | 0.613
31 | GTTCAGTCCTGTCCAT (antisense; LNA-modified, pattern not given here) [HPRT LNA-292 V1] | – | 1.081 | 0.382
32 | TCCAACACTTCGTGGG (antisense; LNA-modified, pattern not given here) [HPRT LNA-669 V1] | – | 0.623 | 0.473
33 | TCGTAGTTGCTTCCTA (antisense; LNA-modified, pattern not given here) [MB21D1-1181 LNA KL] | – | 0.987 | 0.224
34 | TGATGGCCTCCCATCT (antisense; LNA-modified, pattern not given here) [HPRT LNA-332 V1] | – | 0.770 | 0.153
35 | TGCACACTTCGTACCC (antisense; LNA-modified, pattern not given here) [CAMSAP1-4916 LNA V1] | – | 0.283 | 0.244
36 | TGGCCTCCCATCTCCT (antisense; LNA-modified, pattern not given here) [HPRT LNA-329 V1] | – | 0.743 | 0.277
37 | TGTGATGGCCTCCCAT (antisense; LNA-modified, pattern not given here) [HPRT LNA-334 V1] | – | 0.818 | 0.431
38 | TTCGTGGGGTCCTTTT (antisense; LNA-modified, pattern not given here) [HPRT LNA-661 V1] | – | 0.963 | 0.523
39 | TTTTGGCTGGGATCAA (antisense; LNA-modified, pattern not given here) [CAMSAP1-4697 LNA KL] | – | 0.985 | 0.169
40 | UAA (mU*mA*mA) | 1.176 | – | –
41 | UAC (mU*mA*mC) | 0.997 | – | –
42 | UAG (mU*mA*mG) | 0.977 | – | –
43 | UAU (mU*mA*mU) | 1.145 | – | –
44 | UCC (mU*mC*mC) | 1.106 | – | –
45 | UCU (mU*mC*mU) | 0.876 | – | –
46 | UGC (mU*mG*mC) | 1.198 | – | –
47 | UGU (mU*mG*mU) | 1.085 | – | –
48 | UUA (mU*mU*mA) | 0.912 | – | –
49 | UUC (mU*mU*mC) | 0.770 | – | –
50 | UUG (listed as RNA, chemistry not fully specified) | 0.816 | – | –
